Patent US5451518A, “Purified human ceramide-activated protein kinase” (Sloan-Kettering Institute for Cancer Research, priority 1992, dated 1995)
“Also recorded” adds a separate entry of the source. Where two headings read alike, the source gives them in different places.

How the values were obtained:
[1] = tested on: ceramide-activated protein kinase; conditions: for effect on EGFR peptide phosphorylation (in words): A-431
[2] = tested on: ceramide-activated protein kinase; conditions: cited from earlier work
[3] = tested on: ceramide-activated protein kinase; conditions: HL-60; cholera toxin 10 nM, retinoic acid 0.5 μM, butyrate 0.5 mM
[4] = tested on: ceramide-activated protein kinase; experiment: Phosphoamino acid analysis of phosphorylated EGFR peptide; assay type: biochemical, human; conditions: A-431
Description: Reactions were done, and phosphorylated peptide was quantified as for FIG. 2. (Left) HPLC elution profile of samples with or without the EGFR peptide. (Right) Phosphoamino acid analysis of the phosphorylated peptide purified by HPLC. Phosphorylated amino acids (Y, […]; T, threonine; S, serine) were resolved by one-dimensional thin-layer electrophoresis and identified by ninhydrin staining of carrier phosphoamino acids and autoradiography.
To determine which amino acid was phosphorylated, phosphoamino acid analysis of the peptide was done. The phosphopeptide peak obtained by HPLC was subjected to partial acid hydrolysis (1 hr at 110° C. in 6M HCl). The hydrolysates were dried, resuspended in 250 μl of water, and applied to a Dowex AG1-X8 column (Bio-Rad). Amino acids were eluted with 0.5M HCl, dried, and analyzed by thin-layer electrophoresis, according to methods well known to those skilled in the art (26). Individual phosphoamino acids were identified by ninhydrin staining of carrier phosphoamino acids and by autoradiography.

[5] = tested on: epidermal growth factor receptor (EGFR); conditions: A-431 cells; cited from earlier work
[6] = tested on: A-431 human epidermoid carcinoma cells; conditions: A-431 cells; cited from earlier work
[7] = tested on: ceramide-activated protein kinase
Protocol: Homogenates were centrifuged at 500×g for 5 minutes to remove nuclei and at 200,000×g for 30 minutes to prepare microsomal membranes. Membranes were resuspended into homogenizing buffer (2.2 μg membrane protein μl^-1). For assay of kinase activity, the reaction mixture contained 20 μl of microsomal membrane, 40 μl EGFR peptide (4 mg ml^-1 in 25 mM Hepes, pH 7.4) and 100 μl buffer (50 mM HEPES, pH 7.4, 20 mM MgCl2) (40). Phosphorylation was initiated at 22° C. by addition of 40 μl [γ-^32 P] ATP (100 μM final concentration) and terminated at the indicated times by addition of 40 μl of 0.5M ATP in 90% formic acid. Phosphorylated peptide was eluted from a C18 Sep pak cartridge (Millipore), lyophilized, and resolved by C18 reverse phase HPLC using a linear gradient of acetonitrile. […] All assays were performed under conditions determined as linear for time and enzyme concentration. Enzyme activity was determined from the percent conversion of substrate to product and the specific radioactivity of [γ-^32 P] ATP. […] Values (mean ± range) represent duplicate determinations from two experiments.
Activity was measured by the transfer of ^32 P from the γ-position of ATP to EGFR peptide (AA 663-681 of the EGFR). The effect of IL-1β on kinase activity was determined using microsomal membranes derived from cells stimulated with IL-1β.

HL-60 cells [8] = conditions: cited from earlier work
HL-60 cells [9] = conditions: cited from earlier work; remark: listed apart in the source

## Ceramide
[1]; 2 minutes
  lowest effective concentration: 1 nM
[1]
  effect on EGFR peptide phosphorylation (in words): Only membrane activity was enhanced
[1]; listed as natural ceramide (Sigma type III)
  effect on EGFR peptide phosphorylation (in words): similarly effective
[1]; a-431 cells, 0.5 min, 0.5 µM
  increase in kinase activity: 2 -fold
[1]; a-431 cells, 2 min, 1 µM
  maximal effect on EGFR peptide phosphorylation: 2.1 -fold of control
[1]; abstract
  lowest effective concentration: 1 nM
[1]; ceramide 0.5 μM
  duration of stimulation of kinase activity: at least 15 minutes
  time at which stimulation of EGFR peptide phosphorylation was evident: ≤ 30 s
[1]; peptide phosphorylation, 2 minutes
  concentration for maximal effect: 1 µM
[1]; read-out: ED50 for EGFR peptide phosphorylation, 2 minutes
  EC50: ~30 nM
[2]; ceramide 0.001 to 3 μM
  maximum enhancement of kinase activity: two-fold of the control
[3]
  effect on kinase activity (in words): induced a similar effect
[4]
  phosphorylated residue: exclusively on the threonine residue
[5]
  EGFR phosphorylation on Thr-669: induced identical effects; also recorded: induced identical phosphorylation

## CCCCCCCCCCCCC/C=C/[C@@H](O)[C@@H](N)CO [sphingosine]
[1]
  effect on EGFR peptide phosphorylation (in words): similarly effective
[1]; sphingosine (0.001-3 μM), 2 minutes
  stimulation of EGFR peptide phosphorylation: 1.6 fold of control
[6]
  conversion to ceramide: rapidly converted to ceramide
[7]; 10 nM to 1 μM
  enhancement of kinase activity: 1.5-2.5 of control
[3]
  effect on kinase activity (in words): similarly as effective as C8-cer
[5]
  EGFR phosphorylation on Thr-669: enhanced phosphorylation of the EGFR on Thr-669; also recorded: stimulated phosphorylation of the EGFR on Thr-669; also recorded: induced epidermal growth factor receptor (EGFR) phosphorylation on Thr-669

## NH2 -Glu-Leu-Val-Glu-Pro-Leu-Thr-Pro-Ser-Gly-Glu-Ala-Pro-Asn-Gln-Ala-Leu-Leu-Arg-COOH (H-ELVEPLTPSGEAPNQALLR-OH) [EGFR peptide, EGFR peptide (amino acids 663-681)]
[1]; A-431, 5 minutes
  Apparent Km for EGFR peptide: 0.25 mg/mL
[1]; A-431, EGFR peptide substrate
  Apparent Vmax: 100-200 pmol.min^-` /mg of protein^-1
[7]; EL-4, baseline
  maximum reaction velocity: 12.5 pmol min^-1 mg^-1 of microsomal membrane protein
[7]; EL-4 microsomal membrane, baseline
  Michaelis constant (Km) for EGFR peptide: 0.15 mg/mL
[2]; EGFR peptide substrate
  maximum velocity (V°max): 50 to 100 pmol per minute per milligram (pmol min^-1 mg^-1) of protein
[2]; nuclei-free supernates
  Michaelis constant (Km) for peptide: 0.25 mg/mL
[4]
  phosphorylated residue: only threonine-669 served as substrate

B1: γ interferon: factor that induces monocytic differentiation of HL-60 cells (protein, UniProt P01579 24-161, looked up)
Interferon gamma: QDPYVKEAENLKKYFNAGHSDVADNGTLFLGILKNWKEESDRKIMQSQIVSFYFKLFKNFKDDQSIQKSVETIKEDMNVKFFNSNKKKRDDFEKLTNYSVTDLNVQRKAIHELIQVMAELSPAAKTGKRKRSQMLFRG
HL-60 cells [8]
  monocytic differentiation: induce monocytic differentiation
HL-60 cells [9]
  sphingomyelin degradation to ceramide / ceramide level (in words): stimulate sphingomyelin degradation to ceramide
